Results from the NIST ThermoML archive (doi:10.1016/j.jct.2015.01.005).

Experiment: molar heat capacity at saturation pressure
Settings: Crystal 2, Small (less than 1 g) adiabatic calorimetry

O[C@@H]1[C@@H](O)[C@@H]2OC[C@@H](O2)[C@H]1O [1,6-anhydro-β-D-glucopyranose]
Settings	molar heat capacity [J/K/mol]
195.77 K	122.5
197.79 K	123.7
199.82 K	124.9
201.86 K	126.1
203.89 K	127.3
205.92 K	128.5
207.96 K	129.7
209.99 K	130.9
212.02 K	132.1
214.06 K	133.3
216.09 K	134.5
218.13 K	135.7
220.17 K	137
222.21 K	138.2
224.25 K	139.4
226.29 K	140.7
228.33 K	141.9
230.36 K	143.2
232.4 K	144.5
234.45 K	145.8
236.49 K	147
238.53 K	148.3
240.57 K	149.6
242.62 K	150.8
244.66 K	152.1
246.7 K	153.4
248.74 K	154.7
250.79 K	156.1
252.83 K	157.3
254.87 K	158.6
256.92 K	160
258.96 K	161.3
260.23 K	162.2
261.01 K	162.6
262.15 K	163.5
263.05 K	163.9
264.2 K	164.7
265.1 K	165.3
266.25 K	166
267.14 K	166.6
268.29 K	167.4
269.19 K	167.9
270.34 K	168.8
271.23 K	169.2
272.38 K	170.1
273.28 K	170.7
274.43 K	171.3
275.32 K	172
276.48 K	172.8
277.37 K	173.3
278.52 K	174.2
279.42 K	174.8
280.57 K	175.4
281.47 K	176.1
282.61 K	176.8
283.51 K	177.3
284.66 K	178.2
285.56 K	178.8
286.7 K	179.6
287.61 K	180.1
288.75 K	180.9
289.65 K	181.5
290.79 K	182.4
291.7 K	182.9
292.84 K	183.6
293.74 K	184.3
294.88 K	185.1
295.79 K	185.6
296.92 K	186.3
297.83 K	187
298.97 K	187.9
299.88 K	188.4
301.01 K	189.4
301.92 K	189.8
303.05 K	190.6
303.97 K	191.3
305.1 K	192.1
306.02 K	192.6
307.14 K	193.5
308.06 K	194.1
309.19 K	195.1
310.11 K	195.5
311.24 K	196.5
312.16 K	197
313.28 K	197.9
314.21 K	198.4
315.33 K	199.3
316.26 K	199.9
317.38 K	200.9
318.31 K	201.4
319.43 K	202.3
320.36 K	202.9
321.48 K	203.7
322.42 K	204.4
323.53 K	205.4
324.47 K	206
325.58 K	206.9
326.52 K	207.5
327.64 K	208.4
328.57 K	209.1
329.69 K	210.1
330.63 K	210.6
331.74 K	211.7
332.69 K	212.3
333.8 K	213.3
334.74 K	214
335.85 K	215.1
336.8 K	215.7
337.91 K	216.8
338.86 K	217.5
339.97 K	218.6
340.91 K	219.3
342.02 K	220.5
342.97 K	221.2
344.08 K	222.5
345.03 K	223.2
346.14 K	224.6
347.09 K	225.4
348.19 K	226.9
349.14 K	227.7
350.25 K	229.3
351.21 K	230.1
352.31 K	231.9
353.27 K	232.8
354.37 K	234.7
355.33 K	235.6
356.43 K	237.6
357.38 K	238.7
358.48 K	240.7
359.44 K	242.1
360.54 K	244.1
361.49 K	245.9
362.59 K	248.2
363.55 K	249.9
364.64 K	252.8
365.6 K	255.1
366.69 K	258.7
367.64 K	261.8
368.73 K	265.9
